Results on 4 molecules are retold here after publication PMC11887051, “Discovery of ONO-2920632 (VU6011887): A Highly Selective and CNS Penetrant TREK-2 (TWIK-Related K+ Channel 2) Preferring Activator In Vivo Tool Compound” (ACS Chemical Neuroscience, 2025).

The structures appear in SMILES notation. Bounds are passed on as bounds.

In general, IC50 refers to the concentration at which inhibition is half-maximal. The EC50 is the midpoint of the concentration-response curve. Low readings indicate a more potent agent, high ones a less potent agent. A word on the Emax: it is the maximal effect, on the per cent scale that the assay sets.

Data set [1] has as its target T1, TREK-2 (Homo sapiens, UniProt P57789).
T1 sequence (P57789 1-538): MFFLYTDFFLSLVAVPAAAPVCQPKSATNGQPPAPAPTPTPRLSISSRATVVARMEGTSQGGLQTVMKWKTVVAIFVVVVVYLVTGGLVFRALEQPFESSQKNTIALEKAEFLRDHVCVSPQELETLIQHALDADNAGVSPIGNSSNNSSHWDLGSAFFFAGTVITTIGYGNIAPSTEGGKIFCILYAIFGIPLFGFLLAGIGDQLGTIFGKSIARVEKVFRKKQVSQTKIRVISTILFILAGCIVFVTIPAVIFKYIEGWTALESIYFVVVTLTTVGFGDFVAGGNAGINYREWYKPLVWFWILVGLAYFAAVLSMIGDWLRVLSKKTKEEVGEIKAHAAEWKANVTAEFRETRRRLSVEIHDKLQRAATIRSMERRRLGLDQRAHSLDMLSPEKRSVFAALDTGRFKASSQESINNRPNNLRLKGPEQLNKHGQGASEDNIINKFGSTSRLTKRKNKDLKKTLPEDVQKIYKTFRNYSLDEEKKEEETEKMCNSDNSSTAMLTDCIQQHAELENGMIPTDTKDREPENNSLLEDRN
Further details: method as in PMID 31072652. Particulars: previously reported; cited from earlier work.

The target of data set [2] is T2, TREK-1 (Homo sapiens, UniProt O95069).
T2 sequence (O95069 1-426): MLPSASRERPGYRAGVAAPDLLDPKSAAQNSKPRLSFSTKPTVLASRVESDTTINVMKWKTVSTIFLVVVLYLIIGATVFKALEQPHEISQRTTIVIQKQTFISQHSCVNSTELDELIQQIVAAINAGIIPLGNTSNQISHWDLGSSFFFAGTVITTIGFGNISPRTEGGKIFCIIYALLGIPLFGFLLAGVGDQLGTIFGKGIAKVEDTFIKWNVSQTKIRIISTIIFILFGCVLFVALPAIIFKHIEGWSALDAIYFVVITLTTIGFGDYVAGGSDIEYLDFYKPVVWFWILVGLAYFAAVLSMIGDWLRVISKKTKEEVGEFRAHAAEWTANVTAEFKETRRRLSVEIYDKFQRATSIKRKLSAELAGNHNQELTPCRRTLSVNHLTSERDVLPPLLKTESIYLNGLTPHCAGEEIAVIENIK
Nature of the data set: TREK-1 thallium flux assay (hTREK-1/CHO). Format: cell-based. Further details: host or cells: CHO. The note with it: for Emax: % activation relative to 10 µM BL-1249. On the procedure:
(§1) Procedures for Biological Experiments
TREK-1 and TREK-2 thallium flux assay protocol
CHO cells stably expressing human TREK-1 (hTREK-1/CHO) were constructed at Evotec. […]
hTREK-1/CHO or hTREK-2/HEK were plated in 384-well plates at a density of 1.0x10^4 cells/well or 2.0x10^4 cells/well, respectively, and cultured overnight. After the wash by HBSS + 20 mM HEPES buffer, cells were loaded with Thallos dye for 1 hour at room temperature. After the wash […]
(§2) dissolved with HBSS + 20mM HEPES buffer were added to each well. After 10 minutes incubation at room temperature, thallium stimulus buffer were added to each well and the fluorescent intensity are measured by Panoptic. The final thallium concentration was 0.36 mM in […]
(§3) TREK-1 or 0.24 mM in TREK-2, respectively. […]

In data set [3] the target is T2, TREK-1. More on the design: method as in PMID 31072652. The note with it: previously reported; cited from earlier work.
Data set [4] deals with T1, TREK-2. Nature of the data set: TREK-2 thallium flux assay (hTREK-2/HEK). The note with it: for Emax: % activation relative to 10 µM BL-1249. More on the design: expressed in transfected cells; host or cells: HEK293. Format: cell-based. As to the method: as §1
TREK-1 and TREK-2 thallium flux assay protocol […]
HEK293 cells stably expressing human TREK-2 (hTREK-2/HEK) were constructed at Ono. hTREK-1/CHO or hTREK-2/HEK were plated in 384-well plates at a density of 1.0x10^4 cells/well or 2.0x10^4 cells/well, respectively, and cultured overnight. After the wash by HBSS + 20 mM HEPES buffer, cells were loaded with Thallos dye for 1 hour at room temperature. After the wash […]
as §2, §3

Details of data set [5]: method as in PMID 31072652. The note with it: previously reported; cited from earlier work.
On the set-up of data set [6]: method as in PMID 31072652. Particulars: previously reported; cited from earlier work. The source holds these as a separate data set.
In data set [7] the target is T2, TREK-1. Nature of the data set: human 86Rb flux K2P selectivity panel. Format: cell-based. Particulars: data is not shown.
Data set [8] addresses T1, TREK-2. Nature of the data set: human 86Rb flux K2P selectivity panel. It counts as cell-based. The note with it: data is not shown.
A further data set relates to TWIK-2. Nature of the data set: human 86Rb flux K2P selectivity panel. Format: cell-based. The note with it: 86Rb flux K2P panel.
Another data set has as its target T3, mouse TREK-2 (Mus musculus, UniProt Q8BUW1).
T3 sequence (Q8BUW1 1-535): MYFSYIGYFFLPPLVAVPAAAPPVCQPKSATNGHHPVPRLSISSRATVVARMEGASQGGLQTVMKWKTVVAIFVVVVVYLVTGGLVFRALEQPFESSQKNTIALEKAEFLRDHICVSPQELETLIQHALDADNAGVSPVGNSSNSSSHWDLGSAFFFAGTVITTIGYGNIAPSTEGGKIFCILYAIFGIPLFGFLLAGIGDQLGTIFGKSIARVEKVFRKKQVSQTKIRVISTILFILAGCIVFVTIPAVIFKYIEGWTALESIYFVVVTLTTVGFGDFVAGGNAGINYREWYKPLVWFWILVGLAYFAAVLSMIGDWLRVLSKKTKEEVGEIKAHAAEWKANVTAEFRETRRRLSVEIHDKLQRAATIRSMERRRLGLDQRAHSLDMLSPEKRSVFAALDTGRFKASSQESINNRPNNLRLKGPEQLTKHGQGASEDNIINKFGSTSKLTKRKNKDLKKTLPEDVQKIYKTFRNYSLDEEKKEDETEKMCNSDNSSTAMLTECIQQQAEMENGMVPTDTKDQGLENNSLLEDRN
As to the kind of experiment: mouse TREK-2 MPC assay. Particulars: mouse, manual patch clamp. Format: cell-based. In general terms: Patch clamp records ionic current or voltage across a cell membrane.

The test system of a further data set is TASK-2. As to the kind of experiment: human 86Rb flux K2P selectivity panel. It counts as cell-based. Particulars: 86Rb flux K2P panel.
Another data set has as its target T4, mouse TREK-1 (Mus musculus, UniProt P97438).
T4 sequence (P97438 1-426): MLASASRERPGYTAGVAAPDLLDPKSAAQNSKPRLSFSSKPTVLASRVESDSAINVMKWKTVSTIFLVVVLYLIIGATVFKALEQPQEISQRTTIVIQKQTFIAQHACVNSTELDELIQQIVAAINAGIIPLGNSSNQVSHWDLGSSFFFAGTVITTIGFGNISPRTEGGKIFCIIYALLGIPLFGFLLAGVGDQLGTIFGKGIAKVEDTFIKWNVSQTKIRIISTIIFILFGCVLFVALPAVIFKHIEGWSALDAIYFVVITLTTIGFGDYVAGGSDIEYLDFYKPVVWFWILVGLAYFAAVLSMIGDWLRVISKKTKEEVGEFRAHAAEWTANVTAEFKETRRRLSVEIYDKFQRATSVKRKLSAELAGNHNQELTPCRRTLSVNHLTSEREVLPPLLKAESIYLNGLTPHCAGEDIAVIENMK
Nature of the data set: mouse TREK-1 MPC assay. The note with it: manual patch clamp. Format: cell-based.

The subject of the next data set is TRAAK. Nature of the data set: human 86Rb flux K2P selectivity panel. It counts as cell-based. Particulars: 86Rb flux K2P panel.
Another data set has as its system TASK-1. As to the kind of experiment: human 86Rb flux K2P selectivity panel. Format: cell-based. Particulars: 86Rb flux K2P panel.
The subject of another data set is TASK-3. As to the kind of experiment: human 86Rb flux K2P selectivity panel. The note with it: 86Rb flux K2P panel. Format: cell-based.
Another data set addresses T5, TRESK (Homo sapiens, UniProt Q7Z418).
T5 sequence (Q7Z418 1-384): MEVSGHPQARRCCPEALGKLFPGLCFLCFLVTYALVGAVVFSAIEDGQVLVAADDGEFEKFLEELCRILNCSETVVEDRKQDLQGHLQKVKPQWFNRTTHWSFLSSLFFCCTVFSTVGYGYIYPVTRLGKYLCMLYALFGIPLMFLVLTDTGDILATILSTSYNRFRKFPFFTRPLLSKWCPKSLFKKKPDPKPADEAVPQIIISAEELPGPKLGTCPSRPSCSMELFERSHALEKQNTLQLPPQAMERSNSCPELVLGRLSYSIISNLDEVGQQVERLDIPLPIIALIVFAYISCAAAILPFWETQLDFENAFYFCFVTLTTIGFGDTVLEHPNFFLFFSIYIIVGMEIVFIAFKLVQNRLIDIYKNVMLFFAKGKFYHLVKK
Nature of the data set: human 86Rb flux K2P selectivity panel. Format: cell-based. Particulars: 86Rb flux K2P panel.

Setting [9] is: control compound, table footnote.

As to `c1ccc(-c2nnn[nH]2)c(Nc2cccc3c2CCCC3)c1` [BL-1249, (5,6,7,8-tetrahydro-naphthalen-1-yl)-[2-(1H-tetrazol-5-yl)-phenyl]-amine, reference compound], the “TREK-2 Emax” value at TREK-2 [1] is 133 ± 23%. Further, the IC50 on TREK-1 [2] (setting [9]) was 5200 nM; on TREK-2 [4] (setting [9]) it was 7300 nM. Moreover, the “TREK-1 Emax” value on TREK-1 [3] was 109 ± 14%. Also, in data set [5], the “rat CLhep (predicted hepatic clearance)” value was over 50.9 mL/min/kg. In addition, the rat plasma fu in data set [6] is recorded as under 0.001.

With `O=C(Nc1cc(F)c(Br)cc1C(=O)O)c1ccc(SC(F)(F)F)cc1` [Compound 8], on TREK-2 [1], the “TREK-2 Emax” value is recorded as 84%. The “TREK-1 Emax” value on TREK-1 [3] is on record as 101%. For the same molecule, the “rat CLhep (predicted hepatic clearance)” value in data set [5] is given as 35.5 mL/min/kg. In addition, the rat plasma fu in [6] is 0.041.

`COc1cc(OC(F)(F)F)ccc1CNC(=O)c1ccc(-n2cncn2)nc1` [Compound 14b]: the EC50 amounted to 1500 nM on TREK-1 [2] and 410 nM at TREK-2 [4]. For the same molecule, the results for the Emax on TREK-1 [2] and at TREK-2 [4] were 42% and 158%, respectively. Also, the “Fold TREK-2” value on TREK-2 [4] (TREK-2 preference over TREK-1, thallium flux) is 3.7 fold.

Turning to `Cc1cc(OC(F)(F)F)ccc1CNC(=O)c1ccc(-n2cncn2)nc1` [Compound 14c], the “activity at TREK-1 in 86Rb flux panel” value on TREK-1 [7] is on record as “partial TREK-1 activator”. Also, the “activity at TREK-2 in 86Rb flux panel” value at TREK-2 [8] is “submicromolar TREK-2 activator”. Further, the “selectivity against TWIK-2 over TREK-2” value with TWIK-2 is over 43 fold. Further, the concentration for a half-maximal effect (EC50) on mouse TREK-2 was 310 nM; at mouse TREK-1 it was 2800 nM; on TREK-1 [2] it was about 1100 nM; on TREK-2 [4] it was 360 nM. Further, the Emax at mouse TREK-2 is 72%; on mouse TREK-1, 31%; at TREK-1 [2], 20%; at TREK-2 [4], 109%. Further, the “selectivity against TASK-2 over TREK-2” value in the data set with TASK-2 is over 43 fold. Also, in the data set on TRAAK, the “selectivity against TRAAK over TREK-2” value is over 43 fold. Moreover, the “selectivity against TASK-1 over TREK-2” value in the data set on TASK-1 is recorded as over 43 fold. Further, the “selectivity against TASK-3 over TREK-2” value in the data set with TASK-3 is listed as over 43 fold. Besides, the “selectivity against TRESK over TREK-2” value at TRESK is listed as over 43 fold.
